The results in this text go back to ChEMBL document CHEMBL1158845, “Antineoplastic agents. 386. Isolation of sesterstatins 1-3 from the marine sponge Hyrtios erecta” (1998).

One assay relates to Micrococcus luteus. Kind of assay: Antibacterial activity against Micrococcus luteus at 100 ug/disk by disk susceptibility test. Type of assay: functional, organism-based.
Another assay has as its system Cryptococcus neoformans. Nature of the assay: Antimicrobial activity against Cryptococcus neoformans at 100 ug/disk by disk susceptibility test. Type of assay: functional, organism-based.
The next assay relates to Neisseria gonorrhoeae. Kind of assay: Antibacterial activity against Neisseria gonorrhoeae at 100 ug/disk by disk susceptibility test. Type of assay: functional, organism-based.
A further assay concerns P388. Nature of the assay: Cytotoxicity against mouse P388 cells. Type of assay: functional. Conditions: read-out: ED50 (the source's name).
Assay [1] concerns Staphylococcus aureus. Nature of the assay: Antibacterial activity against Staphylococcus aureus at 100 ug/disk by disk susceptibility test. Type of assay: functional, organism-based.
Assay [2] deals with Staphylococcus aureus. Kind of assay: Antibacterial activity against Staphylococcus aureus by disk susceptibility test. Type of assay: functional.

≈ marks a conversion by molar mass, not a printed value. Calls of active or inactive are those of the source. No cut-off for these calls is given here.

With `CC1(C)[C@@H](O)CC[C@]2(C)[C@H]3C[C@@H](O)[C@]4(C)C5=C(CC[C@H]4[C@]3(C)CC[C@@H]12)COC5=O` [SESTERSTATIN 1], the result in the assay on Micrococcus luteus, in the assay on Cryptococcus neoformans, in the assay on Neisseria gonorrhoeae and in the assay with Staphylococcus aureus [1] was inactive. Moreover, the EC50 in the assay with P388 amounted to 0.46 µg/mL (≈ 1.14 µM).
As to `C[C@]1(CO)CCC[C@]2(C)[C@H]3C[C@@H](O)[C@]4(C)C5=C(CC[C@H]4[C@]3(C)CC[C@@H]12)COC5=O` [SESTERSTATIN 2], the outcome in the assay on Micrococcus luteus, in the assay on Cryptococcus neoformans and in the assay on Neisseria gonorrhoeae was inactive. For the same compound, the EC50 in the assay on P388 was 4.2 µg/mL (≈ 10.4 µM). This compound also returned an MIC in the assay on Staphylococcus aureus [2] of 50 µg.
As for `C[C@@]1(CO)CCC[C@]2(C)[C@H]3C[C@@H](O)[C@]4(C)C5=C(CC[C@H]4[C@]3(C)CC[C@@H]12)COC5=O` [SESTERSTATIN 3], the outcome in the assay with Micrococcus luteus, with Cryptococcus neoformans, with Neisseria gonorrhoeae and in the assay with Staphylococcus aureus [1] was inactive. Moreover, in the assay on P388, the EC50 is 4.3 µg/mL (≈ 10.7 µM).
